Measured values taken from PMC6470953, “Symmetrical Modification of Minimized Dermaseptins to Extend the Spectrum of Antimicrobials with Endotoxin Neutralization Potency” (International Journal of Molecular Sciences, 2019).
Where two headings read alike, the source gives them in different places. Where no end group is shown, it is not given here.

Key:
[1] = test system: human embryonic kidney cells (HEK293T); test: MTT cytotoxicity assay, HEK293T; assay type: cell-based; conditions: peptide 64 μM, 18–24 h, 37 °C, OD 570 nm, n = 3
Procedure: (§1) The Roswell Park Memorial Institute-1640 (RPMI-1640) (Invitrogen, Carlsbad, CA, USA) and Dulbecco’s modified Eagle’s medium-high glucose (DMEM) (Gibco, China) were supplemented with 100 μg∙mL^−1 streptomycin sulfate, 100 U∙mL^−1 penicillin, and 10% (v/v) fetal bovine serum (Hyclone, Logan, UT, USA). These were used to culture the RAW264.7 and HEK293T cells, respectively. The peptides were added to cell cultures (1.0–2.0 × 10^4 cells/well) at different final concentrations (1–64 µM) in 96-well plates for 18–24 h at 37 °C in 5% CO2, and 3-(4,5-dimethylthiazol-2-yl)-2,5-diphenyltetrazolium bromide (MTT) (50 µL, 0.5 mg∙mL^−1) was injected and incubated with cell cultures for 4 h at 37 °C. Finally, the centrifuged cells without the supernatants were mixed with 150 µL of dimethyl sulfoxide to dissolve the formazan crystals that formed. The optical density (OD) was recorded by a microplate reader (Tecan, Salzburg, Austria) at 570 nm.

B. subtilis CMCC 63501 [2] = test: MIC assay, B. subtilis CMCC 63501; assay type: cell-based; conditions: two-fold dilution in 96-well plates, MHB, 2-7 × 10^5 CFU/mL, 18–24 h, 37 °C
Procedure: (§2) MIC measurements were performed in 96-well plates. The peptides were dissolved in 0.2% bovine serum albumin and 0.01% acetic acid, and an appropriate broth was subjected to a series of two-fold dilutions. The final concentration of microbial suspensions was from 2 × 10^5 to 7 × 10^5 colony forming units (CFU)∙mL^−1. Key parameters were volume (50 μL bacterial suspension + 50 μL peptide solution), incubating time (18–24 h), and temperature (37 °C). Each test was performed in three replicates on at least two independent occasions. The Mueller Hilton broth (MHB) (AoBoX, Shanghai, China) without or with microbial cells was regarded as the negative control or positive control, respectively. MICs were recorded at the lowest peptide concentration without visible turbidity and spectrophotometrically by measuring the optical density (OD) at 492 nm (Tecan, Salzburg, Austria).

E. coli ATCC25922 [3] = test: MIC assay, E. coli ATCC25922; assay type: cell-based; conditions: two-fold dilution in 96-well plates, MHB, 2-7 × 10^5 CFU/mL, 18–24 h, 37 °C, three replicates on at least two occasions
Procedure: as §2

P. aeruginosa ATCC 27853 [4] = test: MIC assay, P. aeruginosa ATCC 27853; assay type: cell-based; conditions: two-fold dilution in 96-well plates, MHB, 2-7 × 10^5 CFU/mL, 18–24 h, 37 °C
Procedure: as §2

S. faecalis ATCC 29212 [5] = test: MIC assay, S. faecalis ATCC 29212; assay type: cell-based; conditions: two-fold dilution in 96-well plates, MHB, 2-7 × 10^5 CFU/mL, 18–24 h, 37 °C
Procedure: as §2

[6] = test system: human red blood cells (hRBCs); test: Hemolytic activity assay; assay type: cell-based; conditions: lowest peptide concentration that induces 5% hemolysis; hRBCs in PBS pH 7.4, 1 h, 37 °C, OD570
Procedure: Hemolytic activity measurements were performed to evaluate the effect of peptides on hemoglobin release levels by erythrocyte lysis. The experimental protocol was reviewed and approved by the ethics committee of the Northeast Agricultural University Hospital, and the experimental method was carried out in accordance with the approved guidelines and regulations. A total of 1 mL of fresh hRBCs was collected and diluted 10-fold with PBS (pH 7.4). A quantity of 50 μL of the hRBCs solution was incubated with 50 μL of serially diluted peptides dissolved in PBS for 1 h at 37 °C. hRBC suspension treated with 0.1% Triton X-100 was employed as a positive control and an untreated hRBC suspension was used as a negative control. A total of 50 μL of the supernatant was collected from the mixture after centrifugation (1000g, 5 min, 4 °C) and transferred to a new 96-well microplate. The percent hemolysis was calculated using the following equation: Hemolysis (%) = [(OD570 of the treated sample — OD570 of the negative control)/(OD570 of the positive control — OD570 of the negative control)] × 100%.

[7] = test system: murine macrophage cell line (RAW264.7); test: MTT cytotoxicity assay, RAW264.7; assay type: cell-based; conditions: RAW264.7, peptide 64 μM, 18–24 h, 37 °C, OD 570 nm, n = 3
Procedure: as §1

S. aureus ATCC 29213 [8] = test: MIC assay, S. aureus ATCC 29213; assay type: cell-based; conditions: two-fold dilution in 96-well plates, MHB, 2-7 × 10^5 CFU/mL, 18–24 h, 37 °C
Procedure: as §2

[9] = test system: S. epidermidis ATCC 12228; test: MIC assay, S. epidermidis ATCC 12228; assay type: cell-based; conditions: two-fold dilution in 96-well plates, MHB, 2-7 × 10^5 CFU/mL, 18–24 h, 37 °C
Procedure: as §2

S. pullorum C79-13 [10] = test: MIC assay, S. pullorum C79-13; assay type: cell-based; conditions: two-fold dilution in 96-well plates, MHB, 2-7 × 10^5 CFU/mL, 18–24 h, 37 °C
Procedure: as §2

E. coli UB1005 [11] = test: MIC assay, E. coli UB1005; assay type: cell-based; conditions: two-fold dilution in 96-well plates, MHB, 2-7 × 10^5 CFU/mL, 18–24 h, 37 °C
Procedure: as §2

[12] = test system: S. typhimurium ATCC 14028; test: MIC assay, S. typhimurium ATCC 14028; assay type: cell-based; conditions: two-fold dilution in 96-well plates, MHB, 2-7 × 10^5 CFU/mL, 18–24 h, 37 °C
Procedure: as §2

E. coli ATCC 25922 = test: FACScan membrane integrity analysis (propidium iodide); assay type: cell-based; conditions: E. coli ATCC 25922, 10 μg/mL PI, 4 °C, 30 min, flow cytometry
Procedure: The membrane integrity measurements were performed with a FACScan instrument (Bectone-Dickinson, San Jose, CA, USA) by using a modified method as described previously. […] As a control, bacteria were exposed to PBS without the peptide. The gate (P1) was defined based on the FSC and SSC properties of E. coli. The FSC threshold was appropriately raised to include the large cell events in the sample and excluded the debris population. Data acquisition was performed using […] Software (Becton Dickinson, San Jose, CA, USA) with a stopping gate of 10,000 total events. Observations were repeated three times at a laser excitation wavelength of 488 nm. Based on the ability of flow cytometers to provide accurate quantification of cell numbers, the counts of PI-positive cells were measured for each peptide.

[13] = LPS binding, BODIPY-TR cadaverine displacement assay; design: species or system E. coli; conditions: LPS 100 ng/mL, peptide 1.25–40 μg/mL, 1 h, 37 °C, Tris pH 7.4
Procedure: BODIPY-TR-cadaverine fluorescent dye (BC, Sigma, USA) was used to determine the LPS neutralizing activity of the peptides. A total of 100 ng/mL LPS from E. coli O111:B4 was incubated with 5 μg/mL BC in Tris buffer (50 mM, pH 7.4) for 4 h at room temperature. The peptides were serially diluted to different concentrations (1.25–40 μg/mL) in a 96-well plate and incubated with an equal volume of the LPS-probe mixture for 1 h at 37 °C. The fluorescence was recorded (excitation λ = 580 nm, emission λ = 620 nm) with a spectrofluorophotometer (the Infinite 200 pro, Tecan, China). The values were converted to %ΔF (AU) using the following equation:%ΔF (AU) = (Fobs − F0) / (F100 − F0) × 100 where F0 is the initial fluorescence of BC with LPS; F100 is the BC fluorescence with LPS cells upon the addition of 10 μg∙mL^−1 polymyxin B (the positive control); and Fobs is the observed fluorescence at a given peptide concentration.

interleukin-1β(IL-1β) = test: LPS-induced IL-1β gene expression (qRT-PCR) in RAW264.7; assay type: cell-based, murine; conditions: RAW264.7, 100 ng/mL LPS, peptide 10 μg/mL, n = 3
Procedure: (§3) The RAW264.7 cell culture was prepared using the same method as the cytotoxicity assay. The cells were seeded in 12 wells plates at a given density (5 × 10^5 cells per well); after overnight culture, 100 ng·mL^−1 LPS from E. coli 0111:B4 was added to stimulate the generation of cytokines in the presence or absence of the peptides at concentrations of 10 μg·mL^−1. The mRNA levels of IL-6 and IL-1β were determined by quantitative real-time PCR(qRT-PCR) as previously described. The total RNA was isolated from the RAW264.7 cells using TRIzol according to the manufacturer’s instructions. Total RNA (1 µg) was reverse transcribed by the M-MLV Reverse Transcriptase (Thermo scientific, Waltham, MA, USA). The reactions were incubated in chronological arrangement with the following parameters: at 25 °C for 20 min, at 42 °C for 60 min, and at 70 °C for 10 min. The obtained cDNA samples were determined by qRT-PCR with SYBR green I fluorescence dye (Takara Bio Inc., Kusatsu, Japan). Relative quantifications of the mRNA expression of the target genes were calculated through the comparative threshold cycle number for each sample (2^−ΔΔCT). Gene expression was normalized to the corresponding β-actin level. The primers for qRT-PCR in this study are shown below: IL-6-F: […]; IL-6-R: […]; IL-1β-F: […]; and IL-1β-R: […].

[14] = test system: Gram-negative and Gram-positive bacteria; test: Geometric mean of MIC values over the bacteria tested; assay type: cell-based; conditions: MIC >128 μM counted as 256 μM
Procedure: as §2

interleukin-6(IL-6) = test: LPS-induced IL-6 gene expression (qRT-PCR) in RAW264.7; assay type: cell-based, murine; conditions: RAW264.7, 100 ng/mL LPS, peptide 10 μg/mL, n = 3
Procedure: as §3

[15] = test system: S. typhimurium ATCC 14028; conditions: cited from earlier work
Source text: (§4) Table 2 MICs and therapeutic index of the peptides. | column: KL4A6 [9]

S. aureus ATCC 29213 [16] = conditions: cited from earlier work
Source text: as §4

E. coli ATCC25922 [17] = conditions: cited from earlier work
Source text: as §4

[18] = test system: S. epidermidis ATCC 12228; conditions: cited from earlier work
Source text: as §4

B. subtilis CMCC 63501 [19] = conditions: cited from earlier work
Source text: as §4

[20] = test system: Gram-negative and Gram-positive bacteria; conditions: MIC >128 μM counted as 256 μM; cited from earlier work
Source text: as §4

S. faecalis ATCC 29212 [21] = conditions: cited from earlier work
Source text: as §4

P. aeruginosa ATCC 27853 [22] = conditions: cited from earlier work
Source text: as §4

E. coli UB1005 [23] = conditions: cited from earlier work
Source text: as §4

S. pullorum C79-13 [24] = conditions: cited from earlier work
Source text: as §4

[25] = test system: human red blood cells (hRBCs); conditions: lowest peptide concentration that induces 5% hemolysis; cited from earlier work
Source text: as §4

WIKAAAKAAAKIW-NH2 [WI]
cell survival rate [1]: 96%
MIC (B. subtilis CMCC 63501 [2]): 8 µM
MIC (E. coli ATCC25922 [3]): 8 µM
MIC (P. aeruginosa ATCC 27853 [4]): 32 µM
MIC (S. faecalis ATCC 29212 [5]): 32 µM
MHC5 (minimum hemolysis concentration 5%) [6]: 256 µM
cell survival rate [7]: 100%
MIC (S. aureus ATCC 29213 [8]): 32 µM
MIC [9]: 32 µM
MIC (S. pullorum C79-13 [10]): 8 µM
MIC (E. coli UB1005 [11]): 8 µM
MIC [12]: 32 µM

CC[C@H](C)[C@H](NC(=O)CN)C(=O)NCC(=O)N[C@@H](C)C(=O)N[C@H](C(=O)N[C@@H](CC(C)C)C(=O)N[C@@H](CCCCN)C(=O)N[C@H](C(=O)N[C@@H](CC(C)C)C(=O)N[C@H](C(=O)N[C@H](C(=O)NCC(=O)N[C@@H](CC(C)C)C(=O)N1CCC[C@H]1C(=O)N[C@@H](C)C(=O)N[C@@H](CC(C)C)C(=O)N[C@H](C(=O)N[C@@H](CO)C(=O)N[C@@H](Cc1c[nH]c2ccccc12)C(=O)N[C@H](C(=O)N[C@@H](CCCCN)C(=O)N[C@@H](CCCNC(=N)N)C(=O)N[C@@H](CCCCN)C(=O)N[C@@H](CCCNC(=N)N)C(=O)N[C@@H](CCC(N)=O)C(=O)N[C@@H](CCC(N)=O)C(N)=O)[C@@H](C)CC)[C@@H](C)CC)[C@@H](C)O)[C@@H](C)O)C(C)C)C(C)C [Melittin]
percentage of PI-positive cells (E. coli ATCC 25922; 1/2 × MIC): 50.5%
percentage of PI-positive cells (E. coli ATCC 25922; 1 × MIC): 77.5%
binding to LPS, %ΔF (AU) of BODIPY-TR cadaverine [13]: concentration-dependent increase
gene expression of IL-1β in LPS-treated cells (interleukin-1β(IL-1β)): markedly decreased
GM (geometric mean of MIC values) [14]: 1.3 µM
gene expression of IL-6 in LPS-treated cells (interleukin-6(IL-6)): markedly decreased

LLKAAAKAAAKLL-NH2 [KL4A6]
MIC [15]: 128 µM
MIC (S. aureus ATCC 29213 [16]): >128 µM
MIC (E. coli ATCC25922 [17]): 2 µM
MIC [18]: 128 µM
MIC (B. subtilis CMCC 63501 [19]): 32 µM
GM (geometric mean of MIC values) [20]: 59.3 µM
MIC (S. faecalis ATCC 29212 [21]): 16 µM
MIC (P. aeruginosa ATCC 27853 [22]): >128 µM
MIC (E. coli UB1005 [23]): 32 µM
MIC (S. pullorum C79-13 [24]): >128 µM
MHC5 (minimum hemolysis concentration 5%) [25]: >256 µM
